{"source": "patent US6746990B2", "about": "“2-phenyl-substituted heterocyclic 1,3-ketoenols as herbicides and pesticides” (Bayer Aktiengesellschaft, priority 1995, dated 2004)", "assay_type_in_all_cases": "in vivo", "key": {"Echinochloa": {"test_system": "Echinochloa", "assay": "Pre-emergence test, Echinochloa", "conditions": "application rate 250 g/ha, after three weeks", "description": "(§1) Pre-emergence Test Solvent: 3 parts by weight of acetone Emulsifier: 1 part by weight of alkylaryl polyglycol ether To produce a suitable preparation of active compound, 1 part by weight of active compound is mixed with the stated amount of solvent, the stated amount of emulsifier is added and the concentrate is diluted with water to the desired concentration. Seeds of the test plants are sown in normal soil and, after 24 hours, watered with the preparation of the active compound. It is expedient to keep constant the amount of water per unit area. The concentration of the active compound in the preparation is of no importance, only the amount of active compound applied per unit area being decisive. After three weeks, the degree of damage to the plants is rated in % damage in comparison to the development of the untreated control. The figures denote: 0%=no action (like untreated control) 100%=total destruction"}, "Alopecurus [1]": {"test_system": "Alopecurus", "assay": "Pre-emergence test, Alopecurus", "conditions": "application rate 250 g/ha, after three weeks", "description": "as §1"}, "Digitaria": {"test_system": "Digitaria", "assay": "Pre-emergence test, Digitaria", "conditions": "application rate 250 g/ha, after three weeks", "description": "as §1"}, "soya beans [2]": {"test_system": "soya beans", "assay": "Pre-emergence test, tolerance by soya beans", "conditions": "application rate 250 g/ha", "description": "as §1"}, "[3]": {"test_system": "greenhouse red spider mite (Tetranychus urticae)", "assay": "Tetranychus test (OP-resistant)", "conditions": "after 13 days; active compound concentration 0.1%; infested bean shoots dipped", "description": "Tetranychus Test (OP-resistant)\n(§2) Solvent: 7 parts by weight of dimethylformamide\n(§3) Emulsifier: 1 part by weight of alkylaryl polyglycol ether\n(§4) To produce a suitable preparation of active compound, 1 part by weight of active compound is mixed with the stated amount of solvent and the stated amount of emulsifier, and the concentrate is diluted with water to the desired concentration.\nBean shoots (Phaseolus vulgaris) which are severely infested with the greenhouse red spider mite (Tetranychus urticae) are dipped into a preparation of the active compound of the desired concentration.\nAfter the specified period of time, the destruction in % is determined. 100% means that all the spider mites have been killed; 0% means that none of the spider mites have been killed."}, "[4]": {"test_system": "green rice leafhopper (Nephotettix cinticeps)", "assay": "Nephotettix test", "conditions": "after 6 days; active compound concentration 0.1%; rice seedlings dipped", "description": "as §2, §3, §4\nRice seedlings (Oryza sativa) are treated by being dipped into the preparation of active compound of the desired concentration and are infested with the green rice leafhopper (Nephotettix cinticeps) while the leaves are still moist.\nAfter the specified period of time, the destruction in % is determined. 100% means that all the leafhoppers have been killed; 0% means that none of the leafhoppers have been killed."}, "Veronica": {"test_system": "Veronica", "assay": "Pre-emergence test, Veronica", "conditions": "application rate 250 g/ha, after three weeks", "description": "as §1"}, "Chenopodium": {"test_system": "Chenopodium", "assay": "Pre-emergence test, Chenopodium", "conditions": "application rate 250 g/ha, after three weeks", "description": "as §1"}, "soya beans [5]": {"test_system": "soya beans", "assay": "Post-emergence test, tolerance by soya beans", "conditions": "application rate 125 g/ha", "description": "(§5) Post-emergence Test Solvent: 5 parts by weight of acetone Emulsifier: 1 part by weight of alkylaryl polyglycol ether To produce a suitable preparation of active compound, 1 part by weight of active compound is mixed with the stated amount of solvent, the stated amount of emulsifier is added and the concentrate is diluted with water to the desired concentration. Test plants which have a height of 5-15 cm are sprayed with the preparation of the active compound in such a way as to apply the particular amounts of active compound desired per unit area. The concentration of the spray liquor is so chosen that the particular amounts of active compound desired are applied in 2000 l of water/ha. After three weeks, the degree of damage to the plants is. rated in % damage in comparison to the development of the untreated control. The figures denote: 0%=no action (like untreated control) 100%=total destruction"}, "Setaria": {"test_system": "Setaria", "assay": "Post-emergence test, Setaria", "conditions": "application rate 125 g/ha, after three weeks", "description": "as §5"}, "Alopecurus [6]": {"test_system": "Alopecurus", "assay": "Post-emergence test, Alopecurus", "conditions": "application rate 125 g/ha, after three weeks", "description": "as §5"}, "Avena fatua": {"test_system": "Avena fatua", "assay": "Post-emergence test, Avena fatua", "conditions": "application rate 125 g/ha, after three weeks", "description": "as §5"}, "Abutilon": {"test_system": "Abutilon", "assay": "Pre-emergence test, Abutilon", "conditions": "application rate 250 g/ha, after three weeks", "description": "as §1"}, "maize": {"test_system": "maize", "assay": "Pre-emergence test, tolerance by maize", "conditions": "application rate 250 g/ha", "description": "as §1"}, "Alopecurus myosuroides": {"test_system": "Alopecurus myosuroides", "assay": "Pre-emergence test, Alopecurus myosuroides", "conditions": "application rate 4000 g/ha, after three weeks", "description": "as §1"}, "Beta vulgaris": {"test_system": "Beta vulgaris", "assay": "Pre-emergence test, tolerance by Beta vulgaris", "conditions": "application rate 4000 g/ha", "description": "as §1"}, "[7]": {"test_system": "Boophilis Microplus Resistant/SP-resistant Parkhurst Strain", "assay": "Test with Boophilis Microplus resistant/SP-resistant Parkhurst strain", "conditions": "20 μg/animal injected into the abdomen; adult females", "description": "Test with Boophilis Microplus Resistant/SP-resistant Parkhurst Strain\nTest animals: adult females which have sucked themselves full\nSolvent: dimethyl sulphoxide\n20 mg of active substance are dissolved in 1 ml of dimethyl sulphoxide, and lesser concentrations are prepared by dilution with the same solvent.\nThe test is carried out in 5 replications. 1 μl of the solutions is injected into the abdomen, and the animals are transferred into dishes and kept in a controlled-environment cabinet. The activity is determined via the inhibition of oviposition. 100% means that no tick has deposited eggs."}}, "data": [{"smiles": "Cc1cc(C)c(C2=C(O)C3(CCC(C)CC3)NC2=O)c(C#N)c1", "note": "(single isomer, unassigned) [Example I-1-a-4]", "values": [{"measurement": "damage to Echinochloa", "setting": "Echinochloa", "value": 100, "unit": "%"}, {"measurement": "damage to Alopecurus", "setting": "Alopecurus [1]", "value": 100, "unit": "%"}, {"measurement": "damage to Digitaria", "setting": "Digitaria", "value": 100, "unit": "%"}, {"measurement": "tolerance by soya beans", "setting": "soya beans [2]", "value": "good tolerance"}, {"measurement": "activity (destruction in %)", "setting": "[3]", "value": 100, "unit": "%"}, {"measurement": "destruction in %", "setting": "[4]", "value": 100, "unit": "%"}, {"measurement": "damage to Veronica", "setting": "Veronica", "value": 100, "unit": "%"}, {"measurement": "damage to Chenopodium", "setting": "Chenopodium", "value": 100, "unit": "%"}]}, {"smiles": "CCc1cc(C#N)cc(C)c1C1=C(O)C2(CCC(C)CC2)NC1=O", "note": "(single isomer, unassigned) [Example I-1-a-5]", "values": [{"measurement": "tolerance by soya beans", "setting": "soya beans [5]", "value": "good tolerance"}, {"measurement": "activity (destruction in %)", "setting": "[3]", "value": 100, "unit": "%"}, {"measurement": "destruction in %", "setting": "[4]", "value": 100, "unit": "%"}, {"measurement": "damage to Setaria", "setting": "Setaria", "value": "at least 80%"}, {"measurement": "damage to Alopecurus", "setting": "Alopecurus [6]", "value": "at least 80%"}, {"measurement": "damage to Avena fatua", "setting": "Avena fatua", "value": "at least 80%"}]}, {"smiles": "Cc1cc(C#N)cc(C)c1C1=C(O)C2(CCC(C)CC2)NC1=O", "note": "(single isomer, unassigned) [Example I-1-a-6]", "values": [{"measurement": "damage to Abutilon", "setting": "Abutilon", "value": 80, "unit": "%"}, {"measurement": "tolerance by maize", "setting": "maize", "value": "good tolerance"}, {"measurement": "activity (destruction in %)", "setting": "[3]", "value": 100, "unit": "%"}, {"measurement": "destruction in %", "setting": "[4]", "value": 100, "unit": "%"}]}, {"smiles": "CC1CCC2(CC1)NC(=O)C(c1ccc(S(C)(=O)=O)cc1Cl)=C2O", "note": "(stereo not drawn) [Example I-1-a-1]", "values": [{"measurement": "damage to Alopecurus myosuroides", "setting": "Alopecurus myosuroides", "value": 80, "unit": "%"}, {"measurement": "tolerance by Beta vulgaris", "setting": "Beta vulgaris", "value": "good tolerance"}, {"measurement": "destruction in %", "setting": "[4]", "value": 100, "unit": "%"}, {"measurement": "activity (inhibition of oviposition)", "setting": "[7]", "value": 100, "unit": "%"}]}, {"smiles": "CCOC(=O)OC1=C(c2ccc(S(C)(=O)=O)cc2Cl)C(=O)NC12CCC(C)CC2", "note": "(stereo not drawn) [Example I-1-c-1]", "values": [{"measurement": "damage to Alopecurus myosuroides", "setting": "Alopecurus myosuroides", "value": 80, "unit": "%"}, {"measurement": "tolerance by Beta vulgaris", "setting": "Beta vulgaris", "value": "good tolerance"}]}]}
